Our source for the ED50 value, chromatographic logP and Efficacy in % values is patent US7897780B2, “Method for controlling phytopathogenic fungi using silylated carboxamides” (Bayer CropScience AG, priority 2004, dated 2011).

Data set [1] relates to Alternaria mali. Put plainly: In vitro test for the ED50 determination in microorganisms. It counts as cell-based. The settings on record: 50% inhibition of fungal growth, potato dextrose medium, 20° C., 3-5 days, photometric 620 nm, tested at 0.05, 0.5, 5 and 50 ppm. How it is done:
A methanolic solution of the active compound to be tested, admixed with emulsifier PS16, is pipetted into the wells of a microtitre plate. After the solvent has evaporated, 200 μl of potato dextrose medium are added to each well. Beforehand, a suitable concentration of spores or mycelium of the fungus to be tested was added to the medium. The resulting concentrations of active compound are 0.05, 0.5, 5 and 50 ppm. The resulting concentration of the emulsifier is 300 ppm.
The plates are then incubated on a shaker at a temperature of 20° C. for 3-5 days, until sufficient growth can be observed in the untreated control.
Evaluation is carried out photometrically at a wavelength of 620 nm. The dose of active compound which causes 50% inhibition of fungal growth compared to the untreated control (ED50) is calculated from data measured at different concentrations.

Data set [2] in a line: log P determination by HPLC on reversed-phase column (EEC Directive 79/831 Annex V.A8). It counts as physicochemical. Conditions: reversed-phase C18 HPLC column, pH 2.3, C18, 43° C., 0.1% aqueous phosphoric acid/acetonitrile gradient. The method, then:
The given log P values were determined in accordance with EEC Directive 79/831 Annex V.A8 by HPLC (High Performance Liquid Chromatography) on a reversed-phase column (C 18). Temperature: 43° C. Mobile phases for the determination in the acidic range (pH 2.3): 0.1% aqueous phosphoric acid, acetonitrile; linear gradient from 10% acetonitrile to 90% acetonitrile. Calibration was carried out using unbranched alkan-2-ones (having 3 to 16 carbon atoms) with known logP values (determination of the logP values by the retention times using linear interpolation between two successive alkanones). The lambda max values were determined in the maxima of the chromatographic signals using the UV spectra from 200 nm to 400 nm.

The test system of data set [3] is Podosphaera leucotricha. The data set is described as follows: Podosphaera test (apple)/protective. It counts as in vivo. The settings on record: protective spray, application rate 100 g/ha, evaluation 10 days after inoculation. How it is done:
(§1) To produce a suitable preparation of active compound, 1 part by weight of active compound is mixed with the stated amounts of solvents and emulsifier, and the concentrate is diluted with water to the desired concentration.
To test for protective activity, young plants are sprayed with the preparation of active compound at the stated application rate. After the spray coating has dried on, the plants are inoculated with an aqueous spore suspension of the apple mildew pathogen Podosphaera leucotricha. The plants are then placed in a greenhouse at about 23° C. and a relative atmospheric humidity of about 70%.
(§2) Evaluation is carried out 10 days after the inoculation. 0% means an efficacy which corresponds to that of the control, whereas an efficacy of 100% means that no infection is observed.

In data set [4] the test system is Sphaerotheca fuliginea. The data set is described as follows: Sphaerotheca test (cucumber)/protective. Conditions: protective spray, application rate 100 g/ha, evaluation 7 days after inoculation. It counts as in vivo. The method, then: as §1
To test for protective activity, young plants are sprayed with the preparation of active compound at the stated application rate. After the spray coating has dried on, the plants are inoculated with an aqueous spore suspension of Sphaerotheca fuliginea. The plants are then placed in a greenhouse at about 23° C. and a relative atmospheric humidity of about 70%.
Evaluation was carried out 7 days after the inoculation. 0% means an efficacy which corresponds to that of the control, whereas an efficacy of 100% means that no infection is observed.

The subject of data set [5] is Venturia inaequalis. The data set is described as follows: Venturia test (apple)/protective. Conditions: protective spray, application rate 100 g/ha, evaluation 10 days after inoculation. It counts as in vivo. The method, then:
as §1
To test for protective activity, young plants are sprayed with the preparation of active compound at the stated application rate. After the spray coating has dried on, the plants are inoculated with an aqueous conidia suspension of the apple scab pathogen Venturia inaequalis and then remain in an incubation cabin at about 20° C. and 100% relative atmospheric humidity for 1 day.
The plants are then placed in a greenhouse at about 21° C. and a relative atmospheric humidity of about 90%.
as §2

In data set [6] the test system is Botrytis cinerea. Put plainly: Botrytis test (bean)/protective. It counts as in vivo. Conditions: protective spray, application rate 500 g/ha, evaluation 2 days after inoculation. How it is done: as §1
To test for protective activity, young plants are sprayed with the preparation of active compound at the stated application rate. After the spray coating has dried on, 2 small pieces of agar colonized by Botrytis cinerea are placed onto each leaf. The inoculated plants are placed in a dark chamber at about 20° C. and 100% atmospheric humidity.
The size of the infected areas of the leaves is evaluated 2 days after the inoculation. 0% means an efficacy which corresponds to that of the control, whereas an efficacy of 100% means that no infection is observed.

In data set [7] the test system is Puccinia recondita. The data set is described as follows: Puccinia test (wheat)/protective. It counts as in vivo. Conditions: protective spray, application rate 500 g/ha, evaluation 10 days after inoculation. How it is done:
To produce a suitable preparation of active compound, 1 part by weight of active compound is mixed with the stated amounts of solvent and emulsifier, and the concentrate is diluted with water to the desired concentration.
To test for protective activity, young plants are sprayed with the preparation of active compound at the stated application rate. After the spray coating has dried on, the plants are sprayed with a conidia suspension of Puccinia recondita. The plants remain in an incubation cabin at 20° C. and 100% relative atmospheric humidity for 48 hours.
The plants are then placed in a greenhouse at a temperature of about 20° C. and a relative atmospheric humidity of 80% to promote the development of rust pustules.
as §2

In data set [1], `C[Si](C)(C)CCc1sccc1NC(=O)c1ccccc1C(F)(F)F` gave an ED50 value of less than 0.05 ppm.
For `C[Si](C)(C)CCc1sccc1NC(=O)c1cccnc1Cl` [Example 1, 2-chloro-N-{2-[2-(trimethylsilyl)ethyl]-3-thienyl}nicotinamide], the chromatographic logP in data set [2] was 3.65.
`C[Si](C)(C)CCc1sccc1N` [Example (III-1), 2-(2-trimethylsilanylethyl)thiophen-3-ylamine] had a chromatographic logP in data set [2] of 1.78.
`Cc1nc(C(F)F)c(C(=O)Nc2ccsc2CC[Si](C)(C)C)s1` [drawing 73] displayed an Efficacy in % in data set [3] of 100%.
`Cn1cc(C(=O)Nc2ccsc2CC[Si](C)(C)C)c(C(F)(F)F)n1` [drawing 74]: the Efficacy in % in data set [3] is on record as 100%.
Still for that read-out and setting: next, `Cn1cc(C(=O)Nc2ccsc2CC[Si](C)(C)C)c(C(F)F)n1` [drawing 75]: 100%; `Cc1nn(C)c(F)c1C(=O)Nc1ccsc1CC[Si](C)(C)C` [drawing 76]: 100%.
For the compound `Cn1cc(C(=O)Nc2ccsc2CC[Si](C)(C)C)c(C(F)(F)F)c1` [drawing 77], the Efficacy in % in data set [3] amounted to 99%.
Consider `Cc1nc(C(F)F)c(C(=O)Nc2ccsc2CC[Si](C)(C)C)s1` [drawing 78], for which, in data set [4], the Efficacy in % is on record as 100%.
The compound `Cn1cc(C(=O)Nc2ccsc2CC[Si](C)(C)C)c(C(F)(F)F)n1` [drawing 79] showed an Efficacy in % in data set [4] of 100%.
In data set [4], `Cn1cc(C(=O)Nc2ccsc2CC[Si](C)(C)C)c(C(F)F)n1` [drawing 80] returned an Efficacy in % of 100%.
Same read-out and setting: next, `Cc1nn(C)c(F)c1C(=O)Nc1ccsc1CC[Si](C)(C)C` [drawing 81]: 100%; `Cn1cc(C(=O)Nc2ccsc2CC[Si](C)(C)C)c(C(F)(F)F)c1` [drawing 82]: 100%.
For the compound `Cn1cc(C(=O)Nc2ccsc2CC[Si](C)(C)C)c(I)n1` [drawing 83], in data set [4], the Efficacy in % is given as 98%.
`Cc1nc(C(F)F)c(C(=O)Nc2ccsc2CC[Si](C)(C)C)s1` [drawing 84]: the Efficacy in % in data set [5] is recorded as 100%.
`Cn1cc(C(=O)Nc2ccsc2CC[Si](C)(C)C)c(C(F)(F)F)n1` [drawing 85] yielded an Efficacy in % in data set [5] of 100%.
`Cn1cc(C(=O)Nc2ccsc2CC[Si](C)(C)C)c(C(F)F)n1` [drawing 86]: in data set [5], the Efficacy in % was found to be 100%.
Compound `Cc1nn(C)c(F)c1C(=O)Nc1ccsc1CC[Si](C)(C)C` [drawing 87] had an Efficacy in % in data set [5] of 100%.
In the case of `Cn1cc(C(=O)Nc2ccsc2CC[Si](C)(C)C)c(C(F)(F)F)c1` [drawing 88], the Efficacy in % in data set [5] is recorded as 99%.
The same measure, in the same setting: next, `Cn1cc(C(=O)Nc2ccsc2CC[Si](C)(C)C)c(I)n1` [drawing 89]: 100%.
As for `Cc1nc(C(F)F)c(C(=O)Nc2ccsc2CC[Si](C)(C)C)s1` [drawing 90], the Efficacy in % in data set [6] worked out at 100%.
Compound `Cn1cc(C(=O)Nc2ccsc2CC[Si](C)(C)C)c(C(F)(F)F)n1` [drawing 91] yielded an Efficacy in % in data set [6] of 100%.
In the case of `Cn1cc(C(=O)Nc2ccsc2CC[Si](C)(C)C)c(C(F)F)n1` [drawing 92], the Efficacy in % in data set [6] was 100%.
In data set [6], `Cc1nn(C)c(F)c1C(=O)Nc1ccsc1CC[Si](C)(C)C` [drawing 93] had an Efficacy in % of 100%.
Compound `Cn1cc(C(=O)Nc2ccsc2CC[Si](C)(C)C)c(C(F)(F)F)c1` [drawing 94] showed an Efficacy in % in data set [6] of 100%.
In the case of `Cn1cc(C(=O)Nc2ccsc2CC[Si](C)(C)C)c(I)n1` [drawing 95], the Efficacy in % in data set [6] turned out to be 100%.
`Cc1nc(C(F)F)c(C(=O)Nc2ccsc2CC[Si](C)(C)C)s1` [drawing 96] registered an Efficacy in % in data set [7] of 100%.
On to `Cn1cc(C(=O)Nc2ccsc2CC[Si](C)(C)C)c(C(F)(F)F)n1` [drawing 97], for which the Efficacy in % in data set [7] was determined as 100%.
In data set [7], `Cn1cc(C(=O)Nc2ccsc2CC[Si](C)(C)C)c(C(F)F)n1` [drawing 98] displayed an Efficacy in % of 100%.
With `Cc1nn(C)c(F)c1C(=O)Nc1ccsc1CC[Si](C)(C)C` [drawing 99], the Efficacy in % in data set [7] is 100%.
In the case of `Cn1cc(C(=O)Nc2ccsc2CC[Si](C)(C)C)c(C(F)(F)F)n1` [drawing 100], the ED50 value in data set [1] is on record as less than 0.05 ppm.
Consider `Cc1nc(C(F)F)c(C(=O)Nc2ccsc2CC[Si](C)(C)C)s1` [drawing 101], for which the ED50 value in data set [1] is less than 0.05 ppm.
In data set [1], `C[Si](C)(C)CCc1sccc1NC(=O)c1cccnc1Cl` [drawing 103] returned an ED50 value of less than 0.05 ppm.
The same measure, in the same setting: under `Cn1cc(C(=O)Nc2ccsc2CC[Si](C)(C)C)c(C(F)(F)F)c1` [drawing 104] stands less than 0.05 ppm.
On the same count and under the same terms, under `Cn1cc(C(=O)Nc2ccsc2CC[Si](C)(C)C)c(C(F)F)n1` [drawing 105] stands less than 0.05 ppm.
